# Source: patent EP0338092A1, “ANTI-HIV AGENT” (Chugai Seiyaku Kabushiki Kaisha, priority 1987, dated 1989)
# System: HIV
# Test: Detection of viral antigen (indirect fluorescent antibody technique) in HIV-infected Molt-4 clone No. 8 cells
# Assay type: cell-based
# Protocol: The sodium salts of oligosaccharide poly-sulfate esters prepared in Preparation Examples 1 - 3 and 5 - 7 were used as test samples. Molt-4 clone No. 8 cells were infected with a virus obtained from Molt-4/HIV producing cell.
# The experiment was conducted in accordance with the method of Itoh et al. described in Antiviral Research, 7 (1987), 361 - 367.
# The proportions of HIV antigen positive cells were determined by an indirect fluorescent antibody technique using an anti-HIV antibody positive serum as antibody against the infected cells. The results are shown in Tables 2 and 3, in which each of the figure listed denotes the percentage of infected cells taken by HIV antigen positive cells.
# [1] = Table 3, amount of sample added 7.8 µg/ml
# [2] = Table 3, amount of sample added 32 µg/ml
# [3] = Table 3, amount of sample added 125 µg/ml
# [4] = Table 3, amount of sample added 500 µg/ml
# [5] = Table 3, amount of sample added 1000 µg/ml
Substance,percentage of infected cells taken by HIV antigen positive cells [1] [%],percentage of infected cells taken by HIV antigen positive cells [2] [%],percentage of infected cells taken by HIV antigen positive cells [3] [%],percentage of infected cells taken by HIV antigen positive cells [4] [%],percentage of infected cells taken by HIV antigen positive cells [5] [%]
sodium salt of maltoheptaose sulfate ester [compound 7],18.2,4.8,4.4,4.1,3.2
sodium salt of maltohexaose sulfate ester [compound 5],20.3,5.3,5.8,3.6,4.4
sodium salt of maltopentaose sulfate ester [compound 6],24.1,6.4,6.0,4.4,4.6
